Each structure is given as a SMILES string. Changes are numbered by the printed parent chain. Several values for one entry are separate records, joined by “and”; a condition that tells them apart may be missing. Identical values can stand only once.

The results in this text go back to PMC10349806 (Nature Communications, 2023).

In one assay the target is T1, PfCRT variant E299A (Plasmodium falciparum, UniProt Q9N623, A220S/E299A/I356T/K76T/M74I/N326S/N75E/Q271E/R371I).
T1 sequence (Q9N623 1-424 M74I/N75E/K76T/A220S/Q271E/E299A/N326S/I356T/R371I): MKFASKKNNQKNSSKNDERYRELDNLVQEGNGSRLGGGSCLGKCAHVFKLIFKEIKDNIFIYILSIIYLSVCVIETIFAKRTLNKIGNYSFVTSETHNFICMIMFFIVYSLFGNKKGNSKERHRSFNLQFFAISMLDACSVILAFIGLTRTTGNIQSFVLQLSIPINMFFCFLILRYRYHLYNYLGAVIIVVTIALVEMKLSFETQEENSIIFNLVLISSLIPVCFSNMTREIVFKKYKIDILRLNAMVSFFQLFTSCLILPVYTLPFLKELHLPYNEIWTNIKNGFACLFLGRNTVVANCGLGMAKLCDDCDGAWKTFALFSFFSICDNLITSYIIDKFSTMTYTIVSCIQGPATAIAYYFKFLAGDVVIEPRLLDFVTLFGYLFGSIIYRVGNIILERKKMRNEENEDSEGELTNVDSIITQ
The assay is described as follows: CQ uptake assay, oocytes expressing E299A. Type of assay: cell-based. The method, then:
(§1) Site-directed mutagenesis of PfCRT^Dd2 was performed as described using the megaprimer method with overlap extension[21],[54]. The primer pairs used are listed in Supplementary Table 6. Please note that a codon-optimized and oocyte-adapted version of PfCRT^Dd2 was used[22] (Supplementary Fig. 16). The resulting DNA fragment was cloned into the SP64T expression vector and verified by sequencing.
(§2) Oocytes were obtained as described previously. Briefly, adult (>2 years old) female X. laevis frogs (NASCO) were anesthetized in a cooled solution of ethyl 3-amino benzoate methanesulfonate (0.1%, w/v), followed by a surgical removal of parts of the ovary. The ovary lobes were carefully dissected and small pieces of oocytes were incubated in Ca^2+-free ND96 buffer (96 mM NaCl, 2 mM KCl, 1 mM MgCl2 buffered with 5 mM HEPES/NaOH, pH 7.5) supplemented with collagenase D (0.1%, w/v; Roche), BSA (0.5%, w/v), and 9 mm Na2HPO4 at 18 °C for 14-16 h while gentle shaking. After incubation, the oocytes were carefully washed several times with ND96 buffer (96 mM NaCl, 2 mM KCl, 1.8 mM CaCl2, 1 mM MgCl2 buffered with 5 mM HEPES/NaOH, pH 7.5) supplemented with 100 mg l^−1 gentamycin). Defolliculated and healthy-looking stage V-VI oocytes were manually selected for RNA microinjection. The RNA was generated as following: The codon-optimized sequences of PfCRT variants were cloned into the pSP64T expression vector. After vector linearization using the restriction endonucleases BamHI or SalI (New England Biolabs), transcription was performed using the in vitro SP6 mMessage mMachine Kit (Ambion)[34]. The obtained RNA was kept at −80 °C and diluted with nuclease-free water to a concentration of 0.6 μg μl^−1. Precision-bore glass capillary tubes (3.5-inch glass capillaries; Drummond Scientific Co.) were pulled on a vertical puller (P-87 Flaming/Brown micropipette puller, Sutter Instrument Co.), graduated, and placed on a microinjector (Nanoject II Auto-Nanoliter Injector, Drummond Scientific Co.). 50 nl of nuclease-free water alone (control oocytes) or 50 nl of 0.6 μg μl^−1 RNA were injected under stereomicroscopic control. Injected oocytes were incubated for 46–72 h at 18 °C with twice-daily buffer changes before usage in experiments.
Drug uptake assays were performed as described previously[21],[22],[24],[34]. […] The direction of radio-labeled drug transport is here from the mostly acidic extracellular solution (pH 4.5 or 6.0, as indicated) into the oocyte cytosol (pH ∼ 7.2), which corresponds to the efflux of drug from the acidic digestive vacuole (pH 5.2) into the parasite cytoplasm (pH 7.2). The topology of PfCRT in the oolemma is such that both the N- and C-terminus face the extracellular milieu[3],[22]. In the parasite, the N- and C-terminus face the lumen of the digestive vacuole. CQ uptake kinetics were performed by incubating oocytes in ND96 buffer adjusted to a pH of 4.5, 5.0, 5.5, or 6.0 and supplemented with 50 nM [^3H]CQ and one of 7 different CQ concentrations (10 µM, 50 µM, 100 µM, 200 µM, 300 µM, 400 µM, 500 µM CQ). The reaction was stopped at the 60 min time point, which is in the linear uptake range[22],[34] (Supplementary Fig. 17). […] The radioactivity of each sample was measured using a liquid scintillation analyzer Tri-Carb 4910 TR (PerkinElmer). Oocytes that were injected with water instead of RNA were analyzed in parallel, representing the uptake of a drug by diffusion and/or endogenous permeation pathways. […]

For a further assay, the target named is T2, PfCRT variant H46A (Plasmodium falciparum, UniProt Q9N623, A220S/H46A/I356T/K76T/M74I/N326S/N75E/Q271E/R371I).
T2 sequence (Q9N623 1-424 H46A/M74I/N75E/K76T/A220S/Q271E/N326S/I356T/R371I): T1 sequence (Q9N623 1-424 M74I/N75E/K76T/A220S/Q271E/E299A/N326S/I356T/R371I) with H46A, A299E
Kind of assay: CQ uptake assay, oocytes expressing H46A. Format: cell-based. The method, then:
as §1, §2
Drug uptake assays were performed as described previously[21],[22],[24],[34]. […] The direction of radio-labeled drug transport is here from the mostly acidic extracellular solution (pH 4.5 or 6.0, as indicated) into the oocyte cytosol (pH ∼ 7.2), which corresponds to the efflux of drug from the acidic digestive vacuole (pH 5.2) into the parasite cytoplasm (pH 7.2). The topology of PfCRT in the oolemma is such that both the N- and C-terminus face the extracellular milieu[3],[22]. In the parasite, the N- and C-terminus face the lumen of the digestive vacuole. CQ uptake kinetics were performed by incubating oocytes in ND96 buffer adjusted to a pH of 4.5, 5.0, 5.5, or 6.0 and supplemented with 50 nM [^3H]CQ and one of 7 different CQ concentrations (10 µM, 50 µM, 100 µM, 200 µM, 300 µM, 400 µM, 500 µM CQ). The reaction was stopped at the 60 min time point, which is in the linear uptake range[22],[34] (Supplementary Fig. 17). For determination of the amount of drug uptake for each oocyte, the reaction medium was removed and the oocytes were washed three times with 2 ml of ice-cold ND96 buffer. Each oocyte was individually transferred to a scintillation vial containing 5% sodium dodecyl sulfate (200 μl) for lysis. The radioactivity of each sample was measured using a liquid scintillation analyzer Tri-Carb 4910 TR (PerkinElmer). Oocytes that were injected with water instead of RNA were analyzed in parallel, representing the uptake of a drug by diffusion and/or endogenous permeation pathways. The resulting value represents the “background“ level of drug accumulation in oocytes (in-depth discussion in[22]). […]

In another assay the test system is PfCRT variant R374A. Kind of assay: CQ uptake assay, oocytes expressing R374A. Format: cell-based, Plasmodium falciparum. The procedure:
as §1
as §2, with “Precision-bore glass capillary tubes (3.5-inch glass capillaries; Drummond Scientific Co.) were pulled on a vertical puller (P-87 Flaming/Brown micropipette puller, Sutter Instrument Co.), graduated, and placed on a microinjector (Nanoject II Auto-Nanoliter Injector, Drummond Scientific Co.). 50 nl of nuclease-free water alone (control oocytes) or 50 nl of 0.6 μg μl^−1 RNA were injected under stereomicroscopic control. Injected oocytes were incubated for 46–72 h at 18 °C with twice-daily buffer changes before usage in experiments.” left out
Drug uptake assays were performed as described previously[21],[22],[24],[34]. […] The radioactivity of each sample was measured using a liquid scintillation analyzer Tri-Carb 4910 TR (PerkinElmer). Oocytes that were injected with water instead of RNA were analyzed in parallel, representing the uptake of a drug by diffusion and/or endogenous permeation pathways. […]

[1] abbreviates: E299A, 50 µM CQ, 1 h, mean ± SEM.
[2] abbreviates: pH 4.5, single replicates, Fig 1d left.
The mark [3] stands for this setting: pH 6.0, single replicates, Fig 1d left.
Setting [4] is: H46A, 50 µM CQ, 1 h, mean ± SEM.

For the molecule `CCN(CC)CCCC(C)Nc1ccnc2cc(Cl)ccc12` (centres unmarked) [CQ, chloroquine], the “Activity at pH 4.5” value on PfCRT variant E299A (setting [1]) came to 1.87 ± 0.19 pmol h-1 oocyte-1; at PfCRT variant H46A (setting [4]), 2.03 ± 0.27 pmol h-1 oocyte-1; with PfCRT variant R374A (50 µM CQ, 1 h, mean ± SEM) it was 0.90 ± 0.14 pmol h-1 oocyte-1. The “Activity at pH 6.0” value on PfCRT variant E299A (setting [1]) was determined as 3.32 ± 0.54 pmol h-1 oocyte-1; at PfCRT variant H46A (setting [4]), 5.06 ± 0.47 pmol h-1 oocyte-1; in the assay with PfCRT variant R374A (50 µM CQ, 1 h, mean ± SEM) it was 3.81 ± 0.61 pmol h-1 oocyte-1. Also, the R-value was 0.60 ± 0.12 on PfCRT variant E299A (E299A, CQ transport at pH 4.5 / pH 6.0); 0.40 ± 0.03 on PfCRT variant H46A (H46A, CQ transport at pH 4.5 / pH 6.0); 0.23 ± 0.03 in the assay with PfCRT variant R374A (CQ transport at pH 4.5 / pH 6.0). Besides, the “E299A transport activity pH 4.5” value at PfCRT variant E299A (setting [2]) was 2.28 pmol oocyte-1 h-1 and 1.48 pmol oocyte-1 h-1 and 1.84 pmol oocyte-1 h-1. The “E299A transport activity pH 6.0” value at PfCRT variant E299A (setting [3]) is 2.59 pmol oocyte-1 h-1 and 2.74 pmol oocyte-1 h-1 and 4.64 pmol oocyte-1 h-1. At PfCRT variant H46A (setting [2]), the “H46A transport activity pH 4.5” value was 2.52 pmol oocyte-1 h-1 and 1.13 pmol oocyte-1 h-1 and 2.13 pmol oocyte-1 h-1 and 2.35 pmol oocyte-1 h-1. For the same molecule, the “H46A R-value” at PfCRT variant H46A (pH 4.5 vs pH 6.0, Fig 1d left) was 0.45 and 0.32 and 0.36. Also, on PfCRT variant H46A (setting [3]), the “H46A transport activity pH 6.0” value was 5.57 pmol oocyte-1 h-1 and 3.48 pmol oocyte-1 h-1 and 5.92 pmol oocyte-1 h-1 and 5.27 pmol oocyte-1 h-1.
